Measured values as given in the NIST ThermoML archive (doi:10.1021/je800251v).

Details: Liquid

CCCC(=O)OCC [ethyl butanoate]
Details | mass density [kg/m3]
298.15 K, 100 kPa | 873.3
298.15 K, 1000 kPa | 874.1
298.15 K, 2000 kPa | 875
298.15 K, 3000 kPa | 875.9
298.15 K, 3100 kPa | 876
298.15 K, 5000 kPa | 877.5
298.15 K, 10000 kPa | 881.5
298.15 K, 15000 kPa | 885.3
298.15 K, 20000 kPa | 889
298.15 K, 25000 kPa | 892.5
298.15 K, 30000 kPa | 896.9
298.15 K, 35000 kPa | 901.4
303.15 K, 100 kPa | 868.1
303.15 K, 1000 kPa | 868.9
303.15 K, 2000 kPa | 869.8
303.15 K, 3000 kPa | 870.7
303.15 K, 3100 kPa | 870.7
303.15 K, 5000 kPa | 872.4
303.15 K, 10000 kPa | 876.5
303.15 K, 15000 kPa | 880.4
303.15 K, 20000 kPa | 884.1
303.15 K, 25000 kPa | 887.8
303.15 K, 30000 kPa | 892.3
303.15 K, 35000 kPa | 896.9
308.15 K, 100 kPa | 862.6
308.15 K, 1000 kPa | 863.5
308.15 K, 2000 kPa | 864.4
308.15 K, 3000 kPa | 865.3
308.15 K, 3100 kPa | 865.4
308.15 K, 5000 kPa | 867.1
308.15 K, 10000 kPa | 871.4
308.15 K, 15000 kPa | 875.5
308.15 K, 20000 kPa | 879.4
308.15 K, 25000 kPa | 883.1
308.15 K, 30000 kPa | 887.8
308.15 K, 35000 kPa | 892.5
313.15 K, 100 kPa | 857.3
313.15 K, 1000 kPa | 858.2
313.15 K, 2000 kPa | 859.1
313.15 K, 3000 kPa | 860.1
313.15 K, 3100 kPa | 860.2
313.15 K, 5000 kPa | 861.9
313.15 K, 10000 kPa | 866.3
313.15 K, 15000 kPa | 870.5
313.15 K, 20000 kPa | 874.5
313.15 K, 25000 kPa | 878.4
313.15 K, 30000 kPa | 883.2
313.15 K, 35000 kPa | 888.1
318.15 K, 100 kPa | 851.9
318.15 K, 1000 kPa | 852.8
318.15 K, 2000 kPa | 853.8
318.15 K, 3000 kPa | 854.8
318.15 K, 3100 kPa | 854.9
318.15 K, 5000 kPa | 856.7
318.15 K, 10000 kPa | 861.3
318.15 K, 15000 kPa | 865.8
318.15 K, 20000 kPa | 869.9
318.15 K, 25000 kPa | 874.1
318.15 K, 30000 kPa | 879
318.15 K, 35000 kPa | 884.1
323.15 K, 100 kPa | 846.7
323.15 K, 1000 kPa | 847.4
323.15 K, 2000 kPa | 848.4
323.15 K, 3000 kPa | 849.5
323.15 K, 3100 kPa | 849.6
323.15 K, 5000 kPa | 851.7
323.15 K, 10000 kPa | 856.7
323.15 K, 15000 kPa | 861.1
323.15 K, 20000 kPa | 865.4
323.15 K, 25000 kPa | 869.4
323.15 K, 30000 kPa | 874.5
323.15 K, 35000 kPa | 879.7
328.15 K, 100 kPa | 841.4
328.15 K, 1000 kPa | 842
328.15 K, 2000 kPa | 843.3
328.15 K, 3000 kPa | 844.5
328.15 K, 3100 kPa | 844.6
328.15 K, 5000 kPa | 846.6
328.15 K, 10000 kPa | 851.5
328.15 K, 15000 kPa | 856.2
328.15 K, 20000 kPa | 860.5
328.15 K, 25000 kPa | 864.8
328.15 K, 30000 kPa | 870
328.15 K, 35000 kPa | 875.3
333.15 K, 100 kPa | 835.8
333.15 K, 1000 kPa | 837
333.15 K, 2000 kPa | 838.1
333.15 K, 3000 kPa | 839.2
333.15 K, 3100 kPa | 839.3
333.15 K, 5000 kPa | 841.2
333.15 K, 10000 kPa | 846.3
333.15 K, 15000 kPa | 851.1
333.15 K, 20000 kPa | 855.6
333.15 K, 25000 kPa | 860.1
333.15 K, 30000 kPa | 865.4
333.15 K, 35000 kPa | 870.8
338.15 K, 100 kPa | 830.3
338.15 K, 1000 kPa | 831.5
338.15 K, 2000 kPa | 832.6
338.15 K, 3000 kPa | 833.8
338.15 K, 3100 kPa | 833.9
338.15 K, 5000 kPa | 835.9
338.15 K, 10000 kPa | 841.2
338.15 K, 15000 kPa | 846.2
338.15 K, 20000 kPa | 850.8
338.15 K, 25000 kPa | 855.5
338.15 K, 30000 kPa | 861
338.15 K, 35000 kPa | 866.5
343.15 K, 100 kPa | 824.8
343.15 K, 1000 kPa | 825.9
343.15 K, 2000 kPa | 827.1
343.15 K, 3000 kPa | 828.3
343.15 K, 3100 kPa | 828.4
343.15 K, 5000 kPa | 830.7
343.15 K, 10000 kPa | 836.2
343.15 K, 15000 kPa | 841.4
343.15 K, 20000 kPa | 846.1
343.15 K, 25000 kPa | 850.1
343.15 K, 30000 kPa | 855.7
343.15 K, 35000 kPa | 861.8
348.15 K, 100 kPa | 819.1
348.15 K, 1000 kPa | 820.3
348.15 K, 2000 kPa | 821.6
348.15 K, 3000 kPa | 822.9
348.15 K, 3100 kPa | 823
348.15 K, 5000 kPa | 825.1
348.15 K, 10000 kPa | 830.9
348.15 K, 15000 kPa | 836.2
348.15 K, 20000 kPa | 841.1
348.15 K, 25000 kPa | 846
348.15 K, 30000 kPa | 851.8
348.15 K, 35000 kPa | 857.7
353.15 K, 100 kPa | 813.5
353.15 K, 1000 kPa | 814.7
353.15 K, 2000 kPa | 816.1
353.15 K, 3000 kPa | 817.4
353.15 K, 3100 kPa | 817.5
353.15 K, 5000 kPa | 819.8
353.15 K, 10000 kPa | 825.7
353.15 K, 15000 kPa | 831.2
353.15 K, 20000 kPa | 836.3
353.15 K, 25000 kPa | 841.4
353.15 K, 30000 kPa | 847.4
353.15 K, 35000 kPa | 853.4
363.15 K, 100 kPa | 799.9
363.15 K, 1000 kPa | 801.4
363.15 K, 2000 kPa | 803
363.15 K, 3000 kPa | 804.5
363.15 K, 3100 kPa | 804.7
363.15 K, 5000 kPa | 807.9
363.15 K, 10000 kPa | 814.4
363.15 K, 15000 kPa | 820.7
363.15 K, 20000 kPa | 826.7
363.15 K, 25000 kPa | 832.4
363.15 K, 30000 kPa | 837.7
363.15 K, 35000 kPa | 842.7
373.15 K, 100 kPa | 788.5
373.15 K, 1000 kPa | 790.1
373.15 K, 2000 kPa | 791.7
373.15 K, 3000 kPa | 793.4
373.15 K, 3100 kPa | 793.6
373.15 K, 5000 kPa | 796.8
373.15 K, 10000 kPa | 804
373.15 K, 15000 kPa | 810.8
373.15 K, 20000 kPa | 817.2
373.15 K, 25000 kPa | 823.1
373.15 K, 30000 kPa | 828.7
373.15 K, 35000 kPa | 834
383.15 K, 100 kPa | 776.9
383.15 K, 1000 kPa | 778.6
383.15 K, 2000 kPa | 780.4
383.15 K, 3000 kPa | 782.2
383.15 K, 3100 kPa | 782.4
383.15 K, 5000 kPa | 785.5
383.15 K, 10000 kPa | 793.5
383.15 K, 15000 kPa | 800.8
383.15 K, 20000 kPa | 807.5
383.15 K, 25000 kPa | 813.8
383.15 K, 30000 kPa | 819.6
383.15 K, 35000 kPa | 825.2
393.15 K, 100 kPa | 765.1
393.15 K, 1000 kPa | 766.9
393.15 K, 2000 kPa | 768.8
393.15 K, 3000 kPa | 770.8
393.15 K, 3100 kPa | 771
393.15 K, 5000 kPa | 774.5
393.15 K, 10000 kPa | 783.1
393.15 K, 15000 kPa | 790.9
393.15 K, 20000 kPa | 798
393.15 K, 25000 kPa | 804.6
393.15 K, 30000 kPa | 810.7
393.15 K, 35000 kPa | 816.6
